# Assay results published in ChEMBL document CHEMBL1201862, “PubChem BioAssay data set” (2004).
#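 1) Cells in 96-well plates. 2) Compound, 48 h, 5 concentrations. 3) Linear interpolation between surrounding doses. 4) Unreached endpoint = highest concentration. The concentration for 50% growth inhibition is given as GI50.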 Calls of active or inactive are those of the source. Cut-off read from the data, not from the text of the source: active = GI50 up to about 1.1 µM and inactive = higher.
# Experiments:
# Assay in all cases: growth of human tumour cells (NCI), 48 h
# 786-0 = system: 786-0
# A498 = system: A498
# A549 = system: A549
# ACHN = system: ACHN
# BT-549 = system: BT-549
# CAKI-1 = system: CAKI-1
# CCRF-CEM = system: CCRF-CEM
# COLO 205 = system: COLO 205
# DU-145 = system: DU-145
# EKVX = system: EKVX
# HCC 2998 = system: HCC 2998
# HCT-116 = system: HCT-116
# HCT-15 = system: HCT-15
# HL-60 = system: HL-60
# HOP-62 = system: HOP-62
# Hs-578T = system: Hs-578T
# IGROV-1 = system: IGROV-1
# K562 = system: K562
# KM12 = system: KM12
# LOX IMVI = system: LOX IMVI
# M14 = system: M14
# MCF7 = system: MCF7
# MDA-MB-231 = system: MDA-MB-231
# MDA-MB-435 = system: MDA-MB-435
# MDA-N = system: MDA-N
# MOLT-4 = system: MOLT-4
# Malme-3M = system: Malme-3M
# NCI-H226 = system: NCI-H226
# NCI-H23 = system: NCI-H23
# NCI-H460 = system: NCI-H460
# NCI-H522 = system: NCI-H522
# NCI/ADR-RES = system: NCI/ADR-RES
# OVCAR-3 = system: OVCAR-3
# OVCAR-4 = system: OVCAR-4
# OVCAR-5 = system: OVCAR-5
# OVCAR-8 = system: OVCAR-8
# PC-3 = system: PC-3
# RPMI-8226 = system: RPMI-8226
# RXF 393 = system: RXF 393
# SF-268 = system: SF-268
# SF-295 = system: SF-295
# SF-539 = system: SF-539
# SK-MEL-28 = system: SK-MEL-28
# SK-MEL-2 = system: SK-MEL-2
# SK-MEL-5 = system: SK-MEL-5
# SK-OV-3 = system: SK-OV-3
# SN12C = system: SN12C
# SNB-19 = system: SNB-19
# SNB-75 = system: SNB-75
# SR = system: SR
# SW-620 = system: SW-620
# T47D = system: T47D
# TK-10 = system: TK-10
# U-251 = system: U-251
# UACC-257 = system: UACC-257
# UACC-62 = system: UACC-62
# UO-31 = system: UO-31
# HOP-92 = system: HOP-92
# HT-29 = system: HT-29
smiles,measurement,setting,value
CCOC(=O)c1ccc(C(=O)/C(C(C)=O)=C2\CCCN2C)n1C,GI50,786-0,> 100 µM (inactive)
same,GI50,A498,65.8 µM (inactive)
same,GI50,A549,> 100 µM (inactive)
same,GI50,ACHN,> 100 µM (inactive)
same,GI50,BT-549,> 100 µM (inactive)
same,GI50,CAKI-1,> 100 µM (inactive)
same,GI50,CCRF-CEM,52.5 µM (inactive)
same,GI50,COLO 205,> 100 µM (inactive)
same,GI50,DU-145,> 100 µM (inactive)
same,GI50,EKVX,18.2 µM (inactive)
same,GI50,HCC 2998,> 100 µM (inactive)
same,GI50,HCT-116,30.6 µM (inactive)
same,GI50,HCT-15,68.7 µM
same,GI50,HL-60,18.5 µM (inactive)
same,GI50,HOP-62,57.9 µM (inactive)
same,GI50,Hs-578T,> 100 µM (inactive)
same,GI50,IGROV-1,> 100 µM (inactive)
same,GI50,K562,62.7 µM (inactive)
same,GI50,KM12,29.1 µM (inactive)
same,GI50,LOX IMVI,53.8 µM (inactive)
same,GI50,M14,> 100 µM (inactive)
same,GI50,MCF7,61.7 µM (inactive)
same,GI50,MDA-MB-231,27.5 µM (inactive)
same,GI50,MDA-MB-435,> 100 µM (inactive)
same,GI50,MDA-N,86.3 µM (inactive)
same,GI50,MOLT-4,23.1 µM (inactive)
same,GI50,Malme-3M,> 100 µM (inactive)
same,GI50,NCI-H226,> 100 µM (inactive)
same,GI50,NCI-H23,90.6 µM (inactive)
same,GI50,NCI-H460,> 100 µM (inactive)
same,GI50,NCI-H522,57.5 µM (inactive)
same,GI50,NCI/ADR-RES,83.8 µM (inactive)
same,GI50,OVCAR-3,99.8 µM (inactive)
same,GI50,OVCAR-4,71.1 µM (inactive)
same,GI50,OVCAR-5,> 100 µM (inactive)
same,GI50,OVCAR-8,> 100 µM (inactive)
same,GI50,PC-3,> 100 µM (inactive)
same,GI50,RPMI-8226,61.2 µM (inactive)
same,GI50,RXF 393,29.5 µM (inactive)
same,GI50,SF-268,> 100 µM (inactive)
same,GI50,SF-295,56.9 µM (inactive)
same,GI50,SF-539,0.303 µM (active)
same,GI50,SK-MEL-28,> 100 µM (inactive)
same,GI50,SK-MEL-2,> 100 µM (inactive)
same,GI50,SK-MEL-5,42.9 µM (inactive)
same,GI50,SK-OV-3,30.7 µM (inactive)
same,GI50,SN12C,> 100 µM (inactive)
same,GI50,SNB-19,73.3 µM (inactive)
same,GI50,SNB-75,10.9 µM (inactive)
same,GI50,SR,28.9 µM (inactive)
same,GI50,SW-620,69.7 µM (inactive)
same,GI50,T47D,15.8 µM (inactive)
same,GI50,TK-10,> 100 µM (inactive)
same,GI50,U-251,86.5 µM (inactive)
same,GI50,UACC-257,> 100 µM (inactive)
same,GI50,UACC-62,49.1 µM (inactive)
same,GI50,UO-31,> 100 µM (inactive)
Nc1nc2c(=O)c3ccccc3sc2s1,GI50,786-0,34.7 µM (inactive)
same,GI50,A498,25.4 µM (inactive)
same,GI50,A549,33.7 µM (inactive)
same,GI50,ACHN,45.5 µM (inactive)
same,GI50,BT-549,41.4 µM (inactive)
same,GI50,CAKI-1,20.4 µM (inactive)
same,GI50,CCRF-CEM,78.3 µM (inactive)
same,GI50,COLO 205,96.4 µM (inactive)
same,GI50,DU-145,68.9 µM (inactive)
same,GI50,EKVX,23 µM (inactive)
same,GI50,HCT-116,57.8 µM (inactive)
same,GI50,HCT-15,34.5 µM
same,GI50,HL-60,28.9 µM (inactive)
same,GI50,HOP-62,29.2 µM (inactive)
same,GI50,HOP-92,37.4 µM (inactive)
same,GI50,HT-29,54.8 µM (inactive)
same,GI50,Hs-578T,43.7 µM (inactive)
same,GI50,IGROV-1,43.2 µM (inactive)
same,GI50,K562,34.8 µM (inactive)
same,GI50,KM12,> 100 µM (inactive)
same,GI50,LOX IMVI,46.1 µM (inactive)
same,GI50,M14,> 100 µM (inactive)
same,GI50,MCF7,5.96 µM (inactive)
same,GI50,MDA-MB-231,31.9 µM (inactive)
same,GI50,MDA-MB-435,> 100 µM (inactive)
same,GI50,MDA-N,> 100 µM (inactive)
same,GI50,MOLT-4,47.4 µM (inactive)
same,GI50,NCI-H226,21.7 µM (inactive)
same,GI50,NCI-H23,48.5 µM (inactive)
same,GI50,NCI-H460,35.1 µM (inactive)
same,GI50,NCI/ADR-RES,25.9 µM (inactive)
same,GI50,OVCAR-3,56.2 µM (inactive)
same,GI50,OVCAR-5,80.7 µM (inactive)
same,GI50,OVCAR-8,22.6 µM (inactive)
same,GI50,PC-3,60 µM (inactive)
same,GI50,RPMI-8226,33.6 µM (inactive)
same,GI50,RXF 393,39.8 µM (inactive)
same,GI50,SF-268,40.6 µM (inactive)
same,GI50,SF-295,44.1 µM (inactive)
same,GI50,SF-539,17.3 µM (inactive)
same,GI50,SK-MEL-28,> 100 µM (inactive)
same,GI50,SK-MEL-2,> 100 µM (inactive)
same,GI50,SK-MEL-5,35.5 µM (inactive)
same,GI50,SN12C,84.3 µM (inactive)
same,GI50,SNB-19,41.9 µM (inactive)
same,GI50,SNB-75,40.5 µM (inactive)
same,GI50,SR,48.3 µM (inactive)
same,GI50,SW-620,> 100 µM (inactive)
same,GI50,T47D,69 µM (inactive)
same,GI50,TK-10,41.5 µM (inactive)
same,GI50,U-251,45.1 µM (inactive)
same,GI50,UACC-257,54.2 µM (inactive)
same,GI50,UACC-62,26.6 µM (inactive)
same,GI50,UO-31,35.6 µM (inactive)
O=C1CC(=O)c2c(O)cc(O)c(c2O)-c2c(ccc(O)c2O)C2=CC(=O)c3c(O)cc(O)c(c3O2)-c2c1ccc(O)c2O.O=C1CC2(O)Oc3c1c(O)cc(O)c3-c1c(ccc(O)c1O)-c1cc(=O)c3c(O)cc(O)c(c3o1)-c1c2ccc(O)c1O,GI50,A498,> 50 µM (inactive)
same,GI50,A549,> 50 µM (inactive)
same,GI50,BT-549,> 50 µM (inactive)
same,GI50,CAKI-1,> 50 µM (inactive)
same,GI50,CCRF-CEM,> 50 µM (inactive)
same,GI50,COLO 205,> 50 µM (inactive)
same,GI50,DU-145,> 50 µM (inactive)
same,GI50,EKVX,> 50 µM (inactive)
same,GI50,HCC 2998,> 50 µM (inactive)
same,GI50,HCT-116,> 50 µM (inactive)
same,GI50,HCT-15,> 50 µM
same,GI50,HL-60,> 50 µM (inactive)
same,GI50,HOP-62,> 50 µM (inactive)
same,GI50,HOP-92,> 50 µM (inactive)
same,GI50,HT-29,> 50 µM (inactive)
same,GI50,Hs-578T,> 50 µM (inactive)
same,GI50,IGROV-1,> 50 µM (inactive)
same,GI50,K562,> 50 µM (inactive)
same,GI50,LOX IMVI,> 50 µM (inactive)
same,GI50,M14,> 50 µM (inactive)
same,GI50,MCF7,> 50 µM (inactive)
same,GI50,MDA-MB-231,> 50 µM (inactive)
same,GI50,MDA-MB-435,> 50 µM (inactive)
same,GI50,MDA-N,> 50 µM (inactive)
same,GI50,MOLT-4,> 50 µM (inactive)
same,GI50,Malme-3M,> 50 µM (inactive)
same,GI50,NCI-H226,> 50 µM (inactive)
same,GI50,NCI-H23,> 50 µM (inactive)
same,GI50,NCI-H460,> 50 µM (inactive)
same,GI50,NCI/ADR-RES,> 50 µM (inactive)
same,GI50,OVCAR-3,> 50 µM (inactive)
same,GI50,OVCAR-4,> 50 µM (inactive)
same,GI50,OVCAR-5,> 50 µM (inactive)
same,GI50,OVCAR-8,> 50 µM (inactive)
same,GI50,PC-3,> 50 µM (inactive)
same,GI50,RXF 393,> 50 µM (inactive)
same,GI50,SF-268,> 50 µM (inactive)
same,GI50,SF-295,> 50 µM (inactive)
same,GI50,SF-539,> 50 µM (inactive)
same,GI50,SK-MEL-28,> 50 µM (inactive)
same,GI50,SK-MEL-2,> 50 µM (inactive)
same,GI50,SK-MEL-5,> 50 µM (inactive)
same,GI50,SK-OV-3,> 50 µM (inactive)
same,GI50,SN12C,> 50 µM (inactive)
same,GI50,SNB-19,> 50 µM (inactive)
same,GI50,SNB-75,> 50 µM (inactive)
same,GI50,SR,> 50 µM (inactive)
same,GI50,SW-620,> 50 µM (inactive)
same,GI50,T47D,> 50 µM (inactive)
same,GI50,TK-10,> 50 µM (inactive)
same,GI50,U-251,> 50 µM (inactive)
same,GI50,UACC-257,> 50 µM (inactive)
same,GI50,UACC-62,> 50 µM (inactive)
same,GI50,UO-31,> 50 µM (inactive)
